Experimental data published in ChEMBL document CHEMBL4507268 (2021).

Assays:
Conditions in all cases: Compound concentration 1.0 uM
[1] = molecular target: BDNF/NT-3 growth factors receptor (Homo sapiens) (UniProt Q16620)
[2] = molecular target: High affinity nerve growth factor receptor (Homo sapiens) (UniProt P04629)
[3] = molecular target: Ribosomal protein S6 kinase alpha-4 (Homo sapiens) (UniProt O75676)
[4] = molecular target: Death-associated protein kinase 1 (Homo sapiens) (UniProt P53355)
[5] = molecular target: Tyrosine-protein kinase Yes (Homo sapiens) (UniProt P07947)
Chain of Tyrosine-protein kinase Yes (Homo sapiens) (P07947 2-543 limits assumed): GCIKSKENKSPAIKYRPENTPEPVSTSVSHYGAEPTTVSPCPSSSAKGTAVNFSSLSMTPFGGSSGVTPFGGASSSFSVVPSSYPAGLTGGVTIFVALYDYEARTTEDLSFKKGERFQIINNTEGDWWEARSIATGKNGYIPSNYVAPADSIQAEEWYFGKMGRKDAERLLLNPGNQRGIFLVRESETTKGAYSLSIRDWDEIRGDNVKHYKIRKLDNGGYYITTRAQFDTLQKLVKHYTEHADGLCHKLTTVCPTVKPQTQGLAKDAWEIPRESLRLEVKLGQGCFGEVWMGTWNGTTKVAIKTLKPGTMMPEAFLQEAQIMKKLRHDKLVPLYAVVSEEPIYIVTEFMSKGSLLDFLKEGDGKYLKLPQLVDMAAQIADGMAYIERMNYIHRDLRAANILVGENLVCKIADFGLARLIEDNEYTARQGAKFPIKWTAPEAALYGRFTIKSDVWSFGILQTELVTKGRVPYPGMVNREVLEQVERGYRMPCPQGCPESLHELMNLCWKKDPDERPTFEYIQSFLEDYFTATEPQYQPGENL

[6] = molecular target: T1, Inhibitor of nuclear factor kappa-B kinase subunit alpha (Homo sapiens) (UniProt O15111)
T1 sequence (whole entry): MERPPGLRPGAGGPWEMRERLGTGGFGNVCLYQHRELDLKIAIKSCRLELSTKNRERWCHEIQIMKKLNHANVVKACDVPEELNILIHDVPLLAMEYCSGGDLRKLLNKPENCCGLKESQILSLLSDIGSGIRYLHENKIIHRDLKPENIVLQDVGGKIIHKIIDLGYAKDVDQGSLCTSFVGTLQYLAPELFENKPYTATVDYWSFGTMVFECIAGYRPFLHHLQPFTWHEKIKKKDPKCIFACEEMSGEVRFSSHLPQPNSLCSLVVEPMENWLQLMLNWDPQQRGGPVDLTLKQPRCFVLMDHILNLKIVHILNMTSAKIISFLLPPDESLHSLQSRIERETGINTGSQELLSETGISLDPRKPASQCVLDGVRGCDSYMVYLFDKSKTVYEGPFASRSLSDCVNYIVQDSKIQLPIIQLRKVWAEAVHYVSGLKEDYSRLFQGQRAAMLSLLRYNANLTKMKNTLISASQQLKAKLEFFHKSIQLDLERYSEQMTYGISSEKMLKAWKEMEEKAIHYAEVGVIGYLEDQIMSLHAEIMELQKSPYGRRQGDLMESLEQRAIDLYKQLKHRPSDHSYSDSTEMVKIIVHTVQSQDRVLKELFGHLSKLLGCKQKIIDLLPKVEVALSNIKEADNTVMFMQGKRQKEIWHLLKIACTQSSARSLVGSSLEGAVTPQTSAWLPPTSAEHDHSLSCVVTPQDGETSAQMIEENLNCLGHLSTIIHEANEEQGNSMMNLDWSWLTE

[7] = molecular target: Tyrosine-protein kinase FRK (Homo sapiens) (UniProt P42685)
[8] = molecular target: G protein-coupled receptor kinase 5 (Homo sapiens) (UniProt P34947)
Chain of G protein-coupled receptor kinase 5 (Homo sapiens) (P34947 whole entry, looked up): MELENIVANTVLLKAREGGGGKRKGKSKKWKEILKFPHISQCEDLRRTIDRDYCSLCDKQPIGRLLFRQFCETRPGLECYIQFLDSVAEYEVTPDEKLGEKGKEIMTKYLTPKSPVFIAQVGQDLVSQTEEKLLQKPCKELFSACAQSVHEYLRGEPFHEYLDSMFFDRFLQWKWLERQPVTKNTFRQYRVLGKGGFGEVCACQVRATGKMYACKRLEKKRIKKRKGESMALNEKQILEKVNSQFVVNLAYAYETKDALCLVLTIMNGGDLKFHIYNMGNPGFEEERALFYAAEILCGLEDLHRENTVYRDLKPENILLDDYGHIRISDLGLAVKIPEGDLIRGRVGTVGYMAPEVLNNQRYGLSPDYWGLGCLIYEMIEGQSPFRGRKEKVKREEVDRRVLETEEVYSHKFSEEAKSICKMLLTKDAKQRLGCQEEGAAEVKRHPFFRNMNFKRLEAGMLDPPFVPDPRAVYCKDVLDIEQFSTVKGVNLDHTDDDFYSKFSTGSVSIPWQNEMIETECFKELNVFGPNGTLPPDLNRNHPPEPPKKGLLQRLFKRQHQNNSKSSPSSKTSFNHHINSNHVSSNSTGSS

[9] = molecular target: RAC-alpha serine/threonine-protein kinase (Homo sapiens) (UniProt P31749)
[10] = molecular target: T2, Dual specificity mitogen-activated protein kinase kinase 3 (Homo sapiens) (UniProt P46734)
T2 sequence (whole entry): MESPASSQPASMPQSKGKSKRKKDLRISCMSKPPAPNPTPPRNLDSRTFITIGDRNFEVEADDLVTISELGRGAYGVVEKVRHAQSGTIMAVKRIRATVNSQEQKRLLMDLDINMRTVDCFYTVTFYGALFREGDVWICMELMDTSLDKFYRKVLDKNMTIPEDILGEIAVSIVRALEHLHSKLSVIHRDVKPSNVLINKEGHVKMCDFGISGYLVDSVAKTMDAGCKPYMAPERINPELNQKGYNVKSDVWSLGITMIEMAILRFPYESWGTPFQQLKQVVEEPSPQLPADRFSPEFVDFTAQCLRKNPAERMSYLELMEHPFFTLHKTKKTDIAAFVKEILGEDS

[11] = molecular target: Testis-specific serine/threonine-protein kinase 2 (Homo sapiens) (UniProt Q96PF2)
Chain of Testis-specific serine/threonine-protein kinase 2 (Homo sapiens) (Q96PF2 whole entry): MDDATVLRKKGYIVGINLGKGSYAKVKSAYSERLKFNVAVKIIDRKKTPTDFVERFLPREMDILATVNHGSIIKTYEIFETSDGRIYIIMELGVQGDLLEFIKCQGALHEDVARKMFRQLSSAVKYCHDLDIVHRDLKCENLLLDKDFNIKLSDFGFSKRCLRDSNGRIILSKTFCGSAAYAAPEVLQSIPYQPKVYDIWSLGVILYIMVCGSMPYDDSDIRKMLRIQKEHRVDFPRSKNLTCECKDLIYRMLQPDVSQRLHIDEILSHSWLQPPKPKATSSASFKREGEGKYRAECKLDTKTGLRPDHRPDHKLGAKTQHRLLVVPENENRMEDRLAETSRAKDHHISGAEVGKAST

[12] = molecular target: T3, Serine/threonine-protein kinase TAO3 (Homo sapiens) (UniProt Q9H2K8)
T3 sequence (whole entry): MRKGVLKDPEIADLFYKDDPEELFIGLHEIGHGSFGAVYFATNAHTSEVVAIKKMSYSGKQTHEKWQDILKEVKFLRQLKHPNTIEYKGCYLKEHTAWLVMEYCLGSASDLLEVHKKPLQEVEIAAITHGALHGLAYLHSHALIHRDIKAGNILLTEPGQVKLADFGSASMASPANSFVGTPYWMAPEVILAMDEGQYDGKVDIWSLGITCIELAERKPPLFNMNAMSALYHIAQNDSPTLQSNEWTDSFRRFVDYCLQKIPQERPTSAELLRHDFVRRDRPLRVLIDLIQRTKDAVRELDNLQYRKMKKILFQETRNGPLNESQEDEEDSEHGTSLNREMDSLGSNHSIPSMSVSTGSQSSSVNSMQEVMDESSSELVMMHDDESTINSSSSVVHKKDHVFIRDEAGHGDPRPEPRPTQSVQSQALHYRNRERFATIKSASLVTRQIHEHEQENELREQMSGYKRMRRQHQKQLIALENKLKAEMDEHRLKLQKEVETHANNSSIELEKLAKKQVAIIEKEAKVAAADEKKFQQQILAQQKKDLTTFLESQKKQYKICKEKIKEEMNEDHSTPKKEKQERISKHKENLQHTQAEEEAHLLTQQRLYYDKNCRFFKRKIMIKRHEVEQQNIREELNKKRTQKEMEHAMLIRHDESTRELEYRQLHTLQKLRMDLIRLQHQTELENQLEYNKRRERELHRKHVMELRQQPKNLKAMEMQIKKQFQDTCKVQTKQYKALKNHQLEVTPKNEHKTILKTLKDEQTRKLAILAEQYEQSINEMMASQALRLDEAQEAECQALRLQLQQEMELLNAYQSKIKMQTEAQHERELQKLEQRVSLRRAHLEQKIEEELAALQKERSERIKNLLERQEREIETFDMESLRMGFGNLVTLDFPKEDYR

[13] = molecular target: Serine/threonine-protein kinase PAK 6 (Homo sapiens) (UniProt Q9NQU5)
[14] = molecular target: Homeodomain-interacting protein kinase 1 (Homo sapiens) (UniProt Q86Z02)
Chain of Homeodomain-interacting protein kinase 1 (Homo sapiens) (Q86Z02 whole entry, looked up): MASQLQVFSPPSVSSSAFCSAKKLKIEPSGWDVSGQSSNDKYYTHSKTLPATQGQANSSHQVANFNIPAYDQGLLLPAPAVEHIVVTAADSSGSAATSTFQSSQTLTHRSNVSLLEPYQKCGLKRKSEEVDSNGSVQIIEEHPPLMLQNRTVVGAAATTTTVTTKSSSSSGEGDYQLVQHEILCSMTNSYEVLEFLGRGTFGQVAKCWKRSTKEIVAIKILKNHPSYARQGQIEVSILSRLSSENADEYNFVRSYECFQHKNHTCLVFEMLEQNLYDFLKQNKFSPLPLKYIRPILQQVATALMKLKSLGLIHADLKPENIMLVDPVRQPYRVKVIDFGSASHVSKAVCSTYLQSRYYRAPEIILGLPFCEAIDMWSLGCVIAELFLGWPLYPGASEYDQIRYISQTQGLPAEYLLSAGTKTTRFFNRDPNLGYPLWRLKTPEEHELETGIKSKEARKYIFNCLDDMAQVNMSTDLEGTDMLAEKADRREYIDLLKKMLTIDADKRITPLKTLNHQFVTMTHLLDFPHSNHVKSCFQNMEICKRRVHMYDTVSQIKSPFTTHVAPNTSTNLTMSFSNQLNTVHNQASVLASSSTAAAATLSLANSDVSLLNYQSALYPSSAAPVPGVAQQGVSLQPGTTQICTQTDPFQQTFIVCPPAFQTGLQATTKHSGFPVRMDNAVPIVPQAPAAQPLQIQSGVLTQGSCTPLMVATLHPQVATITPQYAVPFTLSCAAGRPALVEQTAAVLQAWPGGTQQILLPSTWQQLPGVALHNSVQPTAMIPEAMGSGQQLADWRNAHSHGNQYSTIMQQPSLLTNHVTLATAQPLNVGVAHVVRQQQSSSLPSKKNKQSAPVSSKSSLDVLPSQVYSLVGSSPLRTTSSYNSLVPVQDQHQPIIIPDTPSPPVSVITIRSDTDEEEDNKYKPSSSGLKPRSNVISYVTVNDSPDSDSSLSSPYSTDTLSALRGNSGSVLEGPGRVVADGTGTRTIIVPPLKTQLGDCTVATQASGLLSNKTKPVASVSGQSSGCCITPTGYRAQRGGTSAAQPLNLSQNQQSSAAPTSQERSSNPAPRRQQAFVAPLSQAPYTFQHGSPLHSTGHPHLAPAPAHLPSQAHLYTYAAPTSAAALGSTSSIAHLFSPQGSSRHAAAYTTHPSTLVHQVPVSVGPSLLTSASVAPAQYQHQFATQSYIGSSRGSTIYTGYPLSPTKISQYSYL

[15] = molecular target: Cyclin-dependent kinase-like 1 (Homo sapiens) (UniProt Q00532)
Chain of Cyclin-dependent kinase-like 1 (Homo sapiens) (Q00532 whole entry): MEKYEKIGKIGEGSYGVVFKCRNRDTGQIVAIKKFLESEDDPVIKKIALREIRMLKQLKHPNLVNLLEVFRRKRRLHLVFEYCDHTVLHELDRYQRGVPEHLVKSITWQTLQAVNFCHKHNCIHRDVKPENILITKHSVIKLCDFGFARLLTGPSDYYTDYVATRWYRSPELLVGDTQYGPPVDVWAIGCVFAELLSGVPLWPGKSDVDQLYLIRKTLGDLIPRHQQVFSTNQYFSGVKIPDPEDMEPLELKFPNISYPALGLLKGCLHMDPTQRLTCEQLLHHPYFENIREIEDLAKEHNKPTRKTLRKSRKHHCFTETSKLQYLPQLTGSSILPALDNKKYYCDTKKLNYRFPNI

[16] = molecular target: Receptor-type tyrosine-protein kinase FLT3 (Homo sapiens) (UniProt P36888)
Chain of Receptor-type tyrosine-protein kinase FLT3 (Homo sapiens) (P36888 whole entry): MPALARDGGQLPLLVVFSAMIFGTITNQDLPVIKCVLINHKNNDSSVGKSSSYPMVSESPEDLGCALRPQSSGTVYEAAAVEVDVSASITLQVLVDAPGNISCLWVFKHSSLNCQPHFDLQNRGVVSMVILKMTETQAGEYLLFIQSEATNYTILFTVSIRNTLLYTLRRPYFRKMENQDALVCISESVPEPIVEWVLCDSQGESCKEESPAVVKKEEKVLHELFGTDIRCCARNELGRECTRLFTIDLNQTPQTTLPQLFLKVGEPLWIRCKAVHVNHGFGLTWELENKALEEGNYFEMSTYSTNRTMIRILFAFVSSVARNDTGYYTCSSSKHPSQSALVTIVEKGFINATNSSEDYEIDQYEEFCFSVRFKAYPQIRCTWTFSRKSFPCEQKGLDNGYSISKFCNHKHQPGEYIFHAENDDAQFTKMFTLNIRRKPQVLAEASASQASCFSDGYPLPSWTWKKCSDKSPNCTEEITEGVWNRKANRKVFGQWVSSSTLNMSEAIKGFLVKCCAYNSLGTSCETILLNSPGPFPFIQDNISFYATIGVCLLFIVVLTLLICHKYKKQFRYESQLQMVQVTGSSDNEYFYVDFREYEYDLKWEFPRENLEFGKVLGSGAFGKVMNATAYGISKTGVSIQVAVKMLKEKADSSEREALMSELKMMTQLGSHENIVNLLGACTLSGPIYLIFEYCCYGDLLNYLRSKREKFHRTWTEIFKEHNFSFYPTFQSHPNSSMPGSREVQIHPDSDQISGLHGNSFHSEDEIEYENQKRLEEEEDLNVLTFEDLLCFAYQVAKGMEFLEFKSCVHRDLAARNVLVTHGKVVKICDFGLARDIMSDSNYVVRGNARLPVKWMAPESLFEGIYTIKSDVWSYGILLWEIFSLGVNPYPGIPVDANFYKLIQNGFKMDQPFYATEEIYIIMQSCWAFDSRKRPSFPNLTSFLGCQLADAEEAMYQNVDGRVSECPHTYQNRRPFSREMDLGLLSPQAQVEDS

[17] = molecular target: Homeodomain-interacting protein kinase 3 (Homo sapiens) (UniProt Q9H422)
[18] = molecular target: Cyclin-dependent kinase-like 4 (Homo sapiens) (UniProt Q5MAI5)

Measured: % residual kinase activity

Chain of Ribosomal protein S6 kinase alpha-4 (Homo sapiens) (O75676 whole entry, looked up): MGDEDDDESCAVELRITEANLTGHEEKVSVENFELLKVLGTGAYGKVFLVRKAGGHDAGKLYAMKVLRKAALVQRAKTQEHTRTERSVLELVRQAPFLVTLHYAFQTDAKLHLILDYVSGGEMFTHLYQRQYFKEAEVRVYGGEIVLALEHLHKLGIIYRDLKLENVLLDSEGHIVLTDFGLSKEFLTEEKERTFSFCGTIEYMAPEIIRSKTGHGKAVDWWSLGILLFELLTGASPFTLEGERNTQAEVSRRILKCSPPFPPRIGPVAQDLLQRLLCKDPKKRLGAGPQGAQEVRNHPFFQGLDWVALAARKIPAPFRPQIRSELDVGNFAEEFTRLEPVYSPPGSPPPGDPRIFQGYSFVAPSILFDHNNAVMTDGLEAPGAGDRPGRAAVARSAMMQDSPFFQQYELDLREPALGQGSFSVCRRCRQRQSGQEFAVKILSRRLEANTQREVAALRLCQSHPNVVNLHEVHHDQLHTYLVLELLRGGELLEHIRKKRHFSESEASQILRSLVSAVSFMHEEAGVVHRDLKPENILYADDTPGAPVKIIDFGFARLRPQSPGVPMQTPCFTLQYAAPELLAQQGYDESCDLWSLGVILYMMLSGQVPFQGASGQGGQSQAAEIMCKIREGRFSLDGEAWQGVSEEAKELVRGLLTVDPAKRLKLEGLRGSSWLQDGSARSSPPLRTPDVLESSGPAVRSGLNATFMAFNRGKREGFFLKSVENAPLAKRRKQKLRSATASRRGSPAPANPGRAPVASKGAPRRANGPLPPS

CN1CCN(c2cnc3c(C4CCN(C(=O)c5ccc(OC(F)(F)F)cc5N)CC4)ncnc3c2)CC1 [BAY-885]
inactive: [1] 98% | [2] 110% | [3] 107% | [4] 109% | [5] 99% | [6] 99% | [7] 109% | [8] 85% | [9] 113% | [10] 92% | [11] 113% | [12] 110% | [13] 103% | [14] 116% | [15] 115% | [16] 100% | [17] 108% | [18] 103%
